Source: patent US20190307783A1, “USE OF ANTIVIRALS TO INHIBIT PROTOZOAN VIRUSES” (priority 2016, published 2019)

Key:
L. guyanensis (LgyLRV1+) = test: Drug-inhibition test: growth of LgyLRV1+ parasites; assay type: cell-based, Leishmania guyanensis; conditions: LgyLRV1+, growth after 2 days
Protocol: These compounds were examined for their ability to inhibit the growth of LgyLRV1^+ and virus levels by LRV1 capsid flow cytometry.
Most studies were performed using luciferase-expressing transfectants of L. guyanensis (MHOM/BR/78/M4147) described previously [LRV1^+ LgyM4147/SSU:IR2SAT-LUC(b)c3 and LRV^−LgyM4147/pX63HYG/SSU:IR2SAT-LUC(b)c4] (54); these lines are termed LgyLRV1^+ and LgyLRV1^−, respectively. Two strains of LRV1^+L. braziliensis were examined: LEM2780 (MHOM/BO/90/CS) and LEM3874 (MHOM/BO/99/IMT252 no. 3) (12). Parasites were grown in Schneider's media (Sigma Aldrich, St. Louis, Mo., USA) prepared according to the supplier's instructions with pH adjusted to 6.5 and supplemented with 0.76 mM hemin, 2 μg/mL biopterin, 50 U/mL penicillin, 50 μg/mL streptomycin, and 10% (vol/vol) heat-inactivated FBS. Cell concentrations were determined using a Coulter Counter ([…], Indianapolis, Ind., USA).
(§1) Parasites were inoculated at 2×10^5 cells/mL into Schneider's media lacking supplemental adenine.

[1] = system: LRV1 (LgyLRV1 capsid levels); test: microbe, parasite or virus in culture; conditions: for LRV1 capsid (geometric mean FU) / Percent control (LRV1 capsid): 2 days; for Inhibition of LRV1 levels, in words: concentrations up to 100 μM, data not shown
Source text: Because LRV1 (like most Totiviridae) is not shed from the cell (33, 34), we developed a flow cytometric assay to measure intracellular LRV1 capsid levels on a per cell basis. To detect LRV1 we used binding to a rabbit anti-LgyLRV1 capsid antiserum (35) followed by detection with Alexa Fluor488-conjugated goat anti-rabbit IgG.
as §1
For capsid flow cytometry, 10^7 cells were fixed at room temperature using 2% (wt/vol) paraformaldehyde (Thermo Fisher Scientific) in PBS for 2 minutes. They were then incubated in blocking buffer [10% (vol/vol) normal goat serum (Vector Laboratories, Burlingame, Calif., USA) and 0.2% TRITON X-100 in PBS] for 30 minutes at room temperature. Anti-LgyLRV1 capsid antibody (35) was added (1:20,000 dilution) and incubated at room temperature for 1 hour. After two washes with PBS, cells were resuspended in 200 μL PBS with Alexa Fluor488-labeled goat anti-rabbit IgG (Alexafluor, Invitrogen; 1:1,000; or Thermo Fisher Scientific; 1:2,000 dilution), and incubated 1 hour at room temperature. After two additional washes with PBS, cells were subjected to flow cytometry, gating for single cells using forward and side scatter and the data analyzed using […] software (BD Bioscience, San Jose, Calif., USA).

[2] = Leishmania guyanensis, 48 h, tested at 100 μM, read-out: Percent control (density)
[3] = 48 h, read-out: Percent control (LRV1 capsid)

Compound: O=c1ccn([C@@H]2O[C@H](CO)[C@@H](O)[C@H]2F)c(=O)[nH]1 [2′-fluoro-2′-deoxyuridine, 2′-Fluoro-2′-deoxyuridine]
- activity at 100 µM (L. guyanensis (LgyLRV1+); [2]): 132%
- Density (cells/mL) (L. guyanensis (LgyLRV1+); tested at 100 μM): 2.22E+7 cells/mL
- activity at 100 µM [1, 3]: 88%
- LRV1 capsid (geometric mean FU) ([1]; LgyLRV1+, tested at 100 μM): 234 FU

Compound: [H]/N=C(/N)NS(=O)(=O)c1ccc(N)cc1 [Sulfaguanidine]
- activity at 100 µM (L. guyanensis (LgyLRV1+); [2]): 68%
- Density (cells/mL) (L. guyanensis (LgyLRV1+); tested at 100 μM): 1.15E+7 cells/mL
- activity at 100 µM [1, 3]: 98%
- LRV1 capsid (geometric mean FU) ([1]; LgyLRV1+, tested at 100 μM): 260 FU

Compound: 3′-Azido-3′-hydroxyethyl cyclobutyl adenine [Compound E8]
- Density (cells/mL) (L. guyanensis (LgyLRV1+); tested at 100 μM): 1.86E+7 cells/mL
- Percent control (density) (L. guyanensis (LgyLRV1+); tested at 100 μM): 111 Percent control
- LRV1 capsid (geometric mean FU) ([1]; LgyLRV1+, tested at 100 μM): 277 FU
- Percent control (LRV1 capsid) ([1]; LgyLRV1+, tested at 100 μM): 104 Percent control

Compound: OC[C@H]1O[C@@H](n2cnc3c(O)ncnc32)[C@H](F)[C@@H]1O [2′-Fluoro-2′-deoxyinosine]
- activity at 100 µM (L. guyanensis (LgyLRV1+); [2]): 143%
- Density (cells/mL) (L. guyanensis (LgyLRV1+); tested at 100 μM): 2.41E+7 cells/mL
- activity at 100 µM [1, 3]: 96%
- LRV1 capsid (geometric mean FU) ([1]; LgyLRV1+, tested at 100 μM): 255 FU

Compound: NC(=O)c1ncn([C@@H]2O[C@H](CO)[C@@H](O)[C@H]2O)n1 [Ribavirin]
- activity at 100 µM (L. guyanensis (LgyLRV1+); [2]): 13%
- Density (cells/mL) (L. guyanensis (LgyLRV1+); tested at 100 μM): 2.21E+6 cells/mL
- activity at 100 µM [1, 3]: 61%
- LRV1 capsid (geometric mean FU) ([1]; LgyLRV1+, tested at 100 μM): 162 FU

Compound: C=C1[C@H](CO)[C@@H](O)C[C@@H]1n1cnc2c(=O)[nH]c(N)nc21 [Entecavir]
- activity at 100 µM (L. guyanensis (LgyLRV1+); [2]): 105%
- Density (cells/mL) (L. guyanensis (LgyLRV1+); tested at 100 μM): 1.77E+7 cells/mL
- activity at 100 µM [1, 3]: 45%
- LRV1 capsid (geometric mean FU) ([1]; LgyLRV1+, tested at 100 μM): 119 FU

Compound: COc1c(C)c2c(c(O)c1C/C=C(\C)CCC(=O)O)C(=O)OC2 [Mycophenolic acid]
- activity at 1 µM (L. guyanensis (LgyLRV1+); Leishmania guyanensis, 48 h, tested at 1 μM, read-out: Percent control (density)): 3%
- Density (cells/mL) (L. guyanensis (LgyLRV1+); tested at 1 μM): 4.55E+5 cells/mL
- activity at 1 µM [1, 3]: 90%
- LRV1 capsid (geometric mean FU) ([1]; LgyLRV1+, tested at 1 μM): 238 FU

Compound: 3′-Azido-3′-hydroxyethyl cyclobutyl adenine [Compound E9]
- Density (cells/mL) (L. guyanensis (LgyLRV1+); tested at 100 μM): 1.58E+7 cells/mL
- Percent control (density) (L. guyanensis (LgyLRV1+); tested at 100 μM): 94 Percent control
- LRV1 capsid (geometric mean FU) ([1]; LgyLRV1+, tested at 100 μM): 279 FU
- Percent control (LRV1 capsid) ([1]; LgyLRV1+, tested at 100 μM): 105 Percent control

Compound: Cc1cn([C@H]2C=C[C@@H](CO)O2)c(=O)[nH]c1=O [Stavudine]
- activity at 100 µM (L. guyanensis (LgyLRV1+); [2]): 95%
- Density (cells/mL) (L. guyanensis (LgyLRV1+); tested at 100 μM): 1.60E+7 cells/mL
- activity at 100 µM [1, 3]: 83%
- LRV1 capsid (geometric mean FU) ([1]; LgyLRV1+, tested at 100 μM): 220 FU

Compound: O=c1[nH]cnc2nn[nH]c12 [8-Azahypoxanthine]
- activity at 100 µM (L. guyanensis (LgyLRV1+); [2]): 77%
- Density (cells/mL) (L. guyanensis (LgyLRV1+); tested at 100 μM): 1.29E+7 cells/mL
- activity at 100 µM [1, 3]: 95%
- LRV1 capsid (geometric mean FU) ([1]; LgyLRV1+, tested at 100 μM): 251 FU

Compound: Nc1ncnc2c(C3N[C@H](CO)[C@@H](O)[C@H]3O)c[nH]c12 (stereo partly shown) [Immucillin A]
- Inhibition of LRV1 levels, in words [1]: no inhibition of LRV1 levels

Compound: Nc1ccn([C@@H]2CS[C@H](CO)O2)c(=O)n1 [Lamivudine]
- activity at 100 µM (L. guyanensis (LgyLRV1+); [2]): 55%
- Density (cells/mL) (L. guyanensis (LgyLRV1+); tested at 100 μM): 9.20E+6 cells/mL

Compound: O=c1[nH]cnc2c(CN3C[C@H](CO)[C@@H](O)C3)c[nH]c12 [DADMe-Immucillin H]
- Inhibition of LRV1 levels, in words [1]: no inhibition of LRV1 levels

Compound: O=c1[nH]cnc2c([C@@H]3N[C@H](CO)[C@@H](O)[C@H]3O)c[nH]c12 [Immucillin H]
- Inhibition of LRV1 levels, in words [1]: no inhibition of LRV1 levels

Compound: Nc1ncnc2nc[nH]c12 [adenine]
- Effect of exogenous adenine on LRV1 levels, in words ([1]; adenine up to 400 μM, LgyLRV1+): nor did it alter LRV1 levels
